From patent publication US8557790B2, “A3 adenoside receptor agonists for the reduction of intraocular pressure” (Can-Fite Biopharma Ltd., priority 2009, dated 2013) come the findings set out here.

The assay has as its system patients with moderate-to-severe Keratoconjunctivitis Sicca (KCS). Put plainly: Phase 2 randomized, double-masked, placebo-controlled clinical study of oral IB-MECA; IOP measured at baseline and week 12. It is filed as in vivo, human. The procedure: A clinical study was conducted in patients with dry eye symptoms. The patients received an oral administration of IB-MECA at a dose of 1 mg or placebo, twice daily.
This study was a Phase 2, randomized, double-masked, placebo-controlled, parallel-group study in adult males and females, aged 18 years and over, with a diagnosis of moderate-to-severe Keratoconjunctivitis Sicca (KCS). Patients were randomized to receive either IB-MECA 1 mg or matching placebo, given orally, twice daily, for 12 weeks. A Screening Period of up to 4 weeks that includes a 2-week run-in period preceded a 12-week treatment period, followed by a 2-week follow-up period.
Some patients received either the IB-MECA capsules or a matching placebo and others received the IB-MECA tablets or a matching placebo.
Eligible patients to be included in the study were adult males or females, aged 18 years and over, with a diagnosis of moderate-to-severe KCS as defined by: • (1) at least 1 of the following ocular symptoms scored at ≧2, where 0=none and 4=very severe/interferes with normal activities: photophobia, blurred vision, foreign body sensation, soreness or pain, itching, burning, dryness; AND • (2) ST (without anesthesia)<7 mm/5 min in either eye; AND • (3) Positive FS, defined as a corneal punctuate fluorescein staining score of ≧1 in either eye, where 0=none and 3=severe. Use of topical ocular treatments was banned during the course of the study other than unreserved artificial tears (REFRESH) up to 8 times/day for the duration of the trial. Also banned was periocular cosmetic application. (c) Patients' Exclusion Criteria
Patients were excluded from the study if they had Sjögren's Syndrome with significant systemic non-exocrine gland involvement, Stevens-Johnson Syndrome, post-burn ocular injury, or chronic ocular disease other than KCS requiring topical treatment. Excluded were also patients being administered topical cyclosporine eye drops or systemic cyclosporine within 3 months prior to the Screening Visit; disease-modifying drugs, including methotrexate and biological agents, whose dose has been changed within 3 months prior to the Screening Visit or was expected to change during the trial; oral corticosteroids>10 mg prednisone, or equivalent, per day; or topical steroids within 2 weeks prior to the Screening Visit and for the duration of the study. […]

The mark [1] stands for this setting: baseline to week 12, 1 mg orally twice daily, N=35.

Entries after “also recorded” stand apart in the source; their conditions may differ.

As for `CNC(=O)[C@H]1O[C@@H](n2cnc3c(NCc4cccc(I)c4)ncnc32)[C@H](O)[C@@H]1O` [IB-MECA, N^6-(3-iodobenzyl)-adenosine-5′-N-methyluronamide], under setting [1], the “IOP % change, Mean” value is −6.07% and the “IOP change, Mean” value is recorded as −1.14. In addition, where the note is “baseline to week 12, versus 1.95% in the placebo group, p<0.05”, the “decrease in IOP (% change)” value is reported as 6.07%. Besides, the “IOP week 12, Mean” value (end of 12 weeks treatment, 1 mg orally twice daily, N=35) was 13.00. Besides, the “effect on IOP (in words)” value (human subjects, oral 1 mg twice daily, tested subjects in general and patients with elevated IOP in particular) was “decreasing IOP; also recorded: lowering of intraocular pressure; also recorded: much more pronounce decrease in IOP than the placebo group”. Also, the “effect on dry eye symptoms (in words)” value (patients with dry eye symptoms, oral 1 mg twice daily) is recorded as “amelioration of some of the dry eye symptoms”. For the same compound, the “IOP at baseline, Mean” value (prior to first treatment, KCS patients, capsules and tablets pooled, N=35) is recorded as 14.14.
